Data set [1] has as its system rabbits. Particulars: rabbit, in vivo, 8 mg/kg.
Procedure: (§1) An injectable suspension containing the test compound and other ingredients mentioned below was administered into the knee joint of rabbits (6 males and 6 females) and dogs (3 males and 3 females) twice a week for 4 weeks. The dose was 8 mg/kg for rabbits and 12 mg/kg for dogs.
For data set [2], the system named is dogs. Particulars: dog, in vivo, 12 mg/kg.
Procedure: as §1

Molecules are shown by their SMILES. Starred links: 1 amine or outer side, 2 acyl side, 3 side chain; linkers in the order of their positions; H or OH if unused. Positions of bridges follow the written chain, without caps; N, C: chain ends. Non-standard residues stand in square brackets, D forms with d. Residues, ends and D or L forms follow the SMILES beside them. *: point of attachment. X2 = CN(/C(=C/c1ccc(O)cc1)C(=O)[*:2])[*:1]; aThr = C[C@H](O)[C@H](N)C(=O)O; X1 = CCCCCc1ccccc1CCC(=O)*

These results are taken from patent US5616556A, “Method of treating rheumatoid arthritis and osteoarthrosis using tetrahydro WS9326A” (Fujisawa Pharmaceutical Co., Ltd., priority 1990, dated 1997).

For `CCCCCc1ccccc1CCC(=O)N[C@@H]1C(=O)N(C)/C(=C/c2ccc(O)cc2)C(=O)N[C@@H](CC(C)C)C(=O)N[C@H](Cc2ccccc2)C(=O)N[C@@H]([C@H](C)O)C(=O)N[C@@H](CC(N)=O)C(=O)N[C@@H](CO)C(=O)O[C@@H]1C` [tetrahydro-WS9326A] (X1-T[X2]L[dF][aThr]NS; ester 1-C), the death entry in data set [1] and in data set [2] was “caused death in neither rabbits nor dogs” each time.
